Test results as given in PMC10636063, “Progesterone activation of β1-containing BK channels involves two binding sites” (Nature Communications, 2023).
“And” between values parts separate entries of the source, which are not always exact repeats. Equal values may be shown once.

Legend:
[1] = target: T1, smooth muscle myocyte BK channels (KCNMB1-/-) (Mus musculus, UniProt Q08460); test: Inside-out patch-clamp of MCA smooth muscle myocytes, KCNMB1-/- mice; type: cell-based; details: for normalized NPo, time course Fig 5C: beta1KO, PROG 10uM
T1 construct: endogenous in cells; host or cells: freshly isolated middle cerebral artery smooth muscle cells of KCNMB1-/- mice, inside-out patches
Description: Ionic currents were recorded from excised, inside-out (I/O) patches. […] In all experiments, free [Ca^2+] in solution was adjusted to the desired value by adding the appropriate amount of Ca^2+ from a 1 mM CaCl2 stock. An agar bridge with Cl^- as main anion was used as ground electrode. Solutions were applied onto the cytosolic side of I/O patches using an automated, pressurized system (Octaflow; […] Ionic currents at single channel resolution were recorded using an EPC8 amplifier (HEKA) at 1 kHz. Data were digitized at 5 kHz using a Digidata […] A/D converter and pCLAMP 8.0 (Molecular Devices); n = 5/group. […] Drug-induced NPo changes were determined by comparing baseline NPo (i.e., NPo with the patch/cell perfused with bath solution) to the NPo from the same patch/cell exposed to the agent under study (DMSO/PROG/oxime) dissolved in bath solution.

[2] = tested on: de-endothelialized MCA segments of KCNMB1-/- mice permeabilized with β1 constructs; test: Cerebral artery diameter in vitro, KCNMB1-/- MCA permeabilized with β1 constructs; set-up: species or system mouse; details: 10 µM; W87F, Y32V or W163I constructs
Source text: Eight-12 week-old C57BL/6J and KCNMB1^−/− on C57BL/6 background mice of both sexes were deeply anesthetized with isoflurane via inhalation in a tightly sealed jar. […] For de-endothelialized records, the endothelium was removed by passing an air bubble into the vessel lumen for 90 s[30]. This method has been consistently used by our group and validated using endothelium-dependent versus endothelium-independent vasodilators[16],[26]. Arteries were cannulated as previously described by our group[26],[40]. […] PSS was continuously bubbled with an O2/CO2/N2 (21/5/74%) gas mixture and maintained at 35–37 °C. The artery external wall diameter was measured using the automatic edge-detection function of lonWizard software (lonOptix) via Sanyo VCB-3512T camera (Sanyo Electric Co.). Arteries were first incubated at an intravascular pressure of 10 mm Hg for 10 min. Then intravascular pressure was increased to 60 mmHg and held steady throughout the experiment to induce myogenic tone development and maintenance[19],[30],[51]. […] To determine arterial viability, arterial contractility was probed with a high KCl solution at the end of each experiment. […] Like PSS, the high-KCl solution was continuously bubbled with O2/CO2/N2 (21/5/74%) gas mixture and maintained at 35–37 °C. […]

[3] = tested on: BK channel, construct not given; test: Channel activity (NPo) time course, Fig 4E block headed only '10 uM PROG'; type: biochemical

T1 sequence (Q08460 whole entry): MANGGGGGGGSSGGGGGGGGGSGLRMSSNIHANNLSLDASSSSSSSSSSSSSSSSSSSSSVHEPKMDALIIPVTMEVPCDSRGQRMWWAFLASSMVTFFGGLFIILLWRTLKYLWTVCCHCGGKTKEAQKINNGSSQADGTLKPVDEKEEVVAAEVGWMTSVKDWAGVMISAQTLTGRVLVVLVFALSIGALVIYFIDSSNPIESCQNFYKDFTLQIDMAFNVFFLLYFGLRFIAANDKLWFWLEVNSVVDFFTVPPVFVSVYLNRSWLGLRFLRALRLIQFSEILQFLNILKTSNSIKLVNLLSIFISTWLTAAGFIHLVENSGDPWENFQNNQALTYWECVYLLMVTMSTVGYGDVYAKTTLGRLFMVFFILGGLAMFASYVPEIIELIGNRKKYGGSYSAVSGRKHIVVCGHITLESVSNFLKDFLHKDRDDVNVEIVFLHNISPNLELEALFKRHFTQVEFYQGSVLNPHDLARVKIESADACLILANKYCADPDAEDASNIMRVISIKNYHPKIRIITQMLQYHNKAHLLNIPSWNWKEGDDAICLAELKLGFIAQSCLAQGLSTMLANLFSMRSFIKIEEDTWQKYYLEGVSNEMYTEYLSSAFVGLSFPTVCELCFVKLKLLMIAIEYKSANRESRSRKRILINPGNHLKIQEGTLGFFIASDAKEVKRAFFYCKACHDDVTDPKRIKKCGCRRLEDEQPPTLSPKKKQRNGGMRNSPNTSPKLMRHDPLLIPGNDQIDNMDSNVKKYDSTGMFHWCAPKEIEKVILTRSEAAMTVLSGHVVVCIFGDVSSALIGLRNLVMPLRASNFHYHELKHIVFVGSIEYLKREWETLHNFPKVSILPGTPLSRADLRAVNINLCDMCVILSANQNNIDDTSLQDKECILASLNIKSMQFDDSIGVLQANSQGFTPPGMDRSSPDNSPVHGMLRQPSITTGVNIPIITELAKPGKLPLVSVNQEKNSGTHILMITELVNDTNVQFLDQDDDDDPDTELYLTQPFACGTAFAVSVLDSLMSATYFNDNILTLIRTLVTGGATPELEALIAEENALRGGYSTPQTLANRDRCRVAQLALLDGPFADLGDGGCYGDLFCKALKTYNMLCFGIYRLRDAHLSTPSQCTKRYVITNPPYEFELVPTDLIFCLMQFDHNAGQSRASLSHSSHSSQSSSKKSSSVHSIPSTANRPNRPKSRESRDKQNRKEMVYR

CC(=O)[C@H]1CC[C@H]2[C@@H]3CCC4=CC(=O)CC[C@]4(C)[C@H]3CC[C@]12C [PROG, Progesterone]
action on BK channel activity ([1]; 10 µM, I/O patches, 30 μM free Ca2+): consistently resistant to PROG
normalized NPo, scatter Fig 5D ([1]; KO, PROG, single cells (same values as 5C time 13)): 1.285 and 0.9695 and 0.9053 and 0.9515 and 1.0301
normalized NPo, time course Fig 5C ([1]; time 1 (normalisation reference), columns = cell number): 1
normalized NPo, time course Fig 5C ([1]; time 2): 0.9681 and 1.062 and 1.027 and 1.211 and 0.9954
normalized NPo, time course Fig 5C ([1]; time 3): 0.9157 and 1.074 and 1.107 and 1.076 and 1.008
normalized NPo, time course Fig 5C ([1]; time 4): 1.013 and 0.9333 and 1.023 and 1.02 and 0.9985
normalized NPo, time course Fig 5C ([1]; time 5): 0.8445 and 0.9395 and 0.9666 and 0.9766 and 1.044
normalized NPo, time course Fig 5C ([1]; time 6): 1.335 and 0.9407 and 1.013 and 1.133 and 0.9069
normalized NPo, time course Fig 5C ([1]; time 7): 1.401 and 0.9722 and 0.9298 and 1.141 and 1.008
normalized NPo, time course Fig 5C ([1]; time 8): 0.9307 and 0.9753 and 1 and 1.059 and 0.9374
normalized NPo, time course Fig 5C ([1]; time 9): 0.8843 and 0.9534 and 0.8763 and 1.168 and 1.029
normalized NPo, time course Fig 5C ([1]; time 10): 0.9107 and 1 and 0.9833 and 1.22 and 0.9731
normalized NPo, time course Fig 5C ([1]; time 11): 0.9343 and 1.019 and 1.187 and 1.237 and 0.9145
normalized NPo, time course Fig 5C ([1]; time 13): 0.9053 and 0.9515 and 1.0301 and 1.285 and 0.9695
normalized NPo, time course Fig 5C ([1]; time 14): 0.872 and 0.9873 and 0.9766 and 1.12 and 1.0626
normalized NPo, time course Fig 5C ([1]; time 15): 0.8834 and 0.9392 and 0.9933 and 1.107 and 1.032
normalized NPo, time course Fig 5C ([1]; time 16): 0.8292 and 1.033 and 0.8763 and 1.072 and 0.8061
normalized NPo, time course Fig 5C ([1]; time 17): 0.881 and 1.326 and 0.8485 and 1.237 and 0.7481
normalized NPo, time course Fig 5C ([1]; time 18): 0.8971 and 1.152 and 0.7759 and 1.189 and 1.06
normalized NPo, time course Fig 5C ([1]; time 19): 0.8576 and 1.179 and 0.7388 and 1.176 and 0.8214
normalized NPo, time course Fig 5C ([1]; time 20): 0.8348 and 0.9401 and 0.8127 and 1.189 and 0.8275
normalized NPo, time course Fig 5C ([1]; time 21): 0.9702 and 1.112 and 0.8729 and 1.098 and 1.041
normalized NPo, time course Fig 5C ([1]; time 22): 0.9222 and 1.09 and 0.9773 and 1.02
vasoactive response of MCA segments [2]: failed to dilate MCA segments
normalized NPo, time course Fig 4E ([3]; time 1 min (normalisation reference)): 1
normalized NPo, time course Fig 4E ([3]; time 2 min): 0.9853 and 1 and 0.9322 and 1.014 and 0.7178
normalized NPo, time course Fig 4E ([3]; time 4 min): 1.015 and 1.069 and 1.029 and 1.047 and 1.067
normalized NPo, time course Fig 4E ([3]; time 5 min): 1.11 and 1.053 and 1.066 and 1.023 and 1.182
normalized NPo, time course Fig 4E ([3]; time 6 min): 1.088 and 1.041 and 1.129 and 1.028 and 1.207
normalized NPo, time course Fig 4E ([3]; time 7 min): 1.162 and 1.118 and 1.064 and 0.8935 and 1.1318
normalized NPo, time course Fig 4E ([3]; time 8 min): 1.096 and 1.061 and 1.045 and 1.148 and 1.63
normalized NPo, time course Fig 4E ([3]; time 10 min): 1.11 and 0.7114 and 1.049 and 1.394 and 1.416
